Measurements as given in patent publication US10106515B2, “1-(cyclopent-2-en-1-yl)-3-(2-hydroxy-3-(arylsulfonyl)phenyl)urea derivatives as CXCR2 inhibitors” (GLAXOSMITHKLINE INTELLECTUAL PROPERTY DEVELOPMENT LIMITED, priority 2014, dated 2018).
Where a name gives a salt, the structure may show the parent alone. Read-outs that look alike come from different tables or passages of the source.

Columns and labels:
recombinant human CXCR2 = target: T1, recombinant human CXCR2 (Homo sapiens, UniProt P25025); experiment: CXCR2 Tango assay; type: cell-based; settings: mean pIC50 of multiple test results; stimulated with 80 nM hCXCL1; reporter gene blue/green emission ratio; read-out: pIC50 (CXCR2 Tango assay) (converted)
T1 construct: TEV protease site; Gal4-VP16 transcription factor
T1 sequence (P25025 1-360): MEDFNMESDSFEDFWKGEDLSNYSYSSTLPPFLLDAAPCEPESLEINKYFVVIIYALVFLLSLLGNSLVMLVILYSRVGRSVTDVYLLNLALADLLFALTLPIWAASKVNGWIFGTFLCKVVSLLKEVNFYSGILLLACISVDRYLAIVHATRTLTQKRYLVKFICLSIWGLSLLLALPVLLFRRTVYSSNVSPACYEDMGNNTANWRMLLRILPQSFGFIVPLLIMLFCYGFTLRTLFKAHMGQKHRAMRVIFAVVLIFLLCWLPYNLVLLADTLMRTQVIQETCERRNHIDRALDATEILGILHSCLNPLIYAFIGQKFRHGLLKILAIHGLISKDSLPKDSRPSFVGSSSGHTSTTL
How it was run: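 A stable cell line carries human CXCR2 fused to a TEV site and Gal4-VP16, with protease-tagged arrestin. Cells (~10,000/well) were stimulated overnight at 37 °C with 80 nM hCXCL1 and a 10-point compound dilution. CCF4-AM beta-lactamase FRET (460/530 nm ratio) was read, normalized to hCXCL1 and DMSO, and mean pIC50 reported.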

[1] = system: upregulation of CD11b in GROα stimulated neutrophils in human whole blood; experiment: Human whole blood assay (CD11b upregulation); type: cell-based; settings: Neutrophil, inhibition of CD11b upregulation, GROα 33 nM final, flow cytometry, read-out: pIC50 (human whole blood assay) (converted)
Protocol: The whole blood assay tested the compounds' ability to inhibit the upregulation of CD11b in GROα stimulated neutrophils in human whole blood.
Blood was withdrawn by venipuncture from consented adults and poured into a Sterilin tube containing an anti-coagulant Heparin (10 uL/mL of blood). All the test compounds were dissolved in DMSO to 4 mM and serial diluted across the plate, 1 in 3 to provide 10 point dose response curves. The compounds were then diluted 100 fold in -PBS [Phosphate buffered saline (without Calcium Chloride and Magnesium Chloride)] after which, 1 uL was dispensed in 96 U bottom Costar plates using an FX.
10 uL of blood was transferred to the compound plate using a multi-channel pipette, gently tapped and incubated for 15 minutes, at 37° C. After 15 minutes, the stimulant GROα was diluted to 100 nM in 0.1% BSA (Albumin Bovine Serum)-PBS and 5 uL is dispensed across the whole plate for a final concentration of 33 nM. The plate was gently tapped and incubated further for 15 minutes at 37° C. The plate was placed on ice for 1 minute before addition of 10 uL of an antibody cocktail consisting of CD11b-FITC (40 ug/mL) purchased from BioLegend (address: Cambridge Bioscience, Munro House, Trafalgar Way, Bar Hill, Cambridge, UK) and CD16-PE purchased from BD Pharmingen (address: The Danby Building, Edmung Halley Road, Oxford Science Park, Oxford, UK) (stock concentration 100 tests, 2 mL stock volume is diluted 1 in 5). The plate was placed on ice for 1 hour in the dark. The cells were then fixed using 200 uL/well of 1×FACS (Flow Activated Cell Sorting) Lyse solution (Becton and Dickinson-BD) and on ice for 20 minutes in the dark. The plate was centrifuged at 1600 rpm for 5 minutes and re-suspended with 200 uL of ice cold PBS. This step was repeated twice and on the final step the plate was re-suspended with 50 uL of ice cold -PBS for flow Cytometric analysis.
Samples were run on a Becton and Dickinson (BD)-Acurri C6 Flow Cytometer using a HyperCyt sampling apparatus (IntelliCyt) with a flow rate 2 uL/sec. CD11b upregulation is monitored in neutrophils and identified using a combination of both side scatter and CD16 expression.

SMILES | IC50 (recombinant human CXCR2) | IC50 [1] | IC50 ([1]; Homo sapiens)
CC1=CCC[C@H]1NC(=O)Nc1ccc(C#N)c(S(=O)(=O)C(C)(C)C(F)(F)F)c1O [Compound 31, (R)-1-(4-cyano-2-hydroxy-3-((1,1,1-trifluoro-2-methylpropan-2-yl)sulfonyl)phenyl)-3-(2-methylcyclopent-2-en-1-yl)urea] | ≤ 1 nM | 25.1 to 2510 nM | 
CC1(S(=O)(=O)c2c(Cl)ccc(NC(=O)N[C@@H]3CCC=C3Cl)c2O)CCOC1 (stereo partly drawn) [Compound 39, 1-(4-chloro-2-hydroxy-3-((3-methyltetrahydro-furan-3-yl)sulfonyl)phenyl)-3-((R)-2-chlorocyclopent-2-en-1-yl)urea] | ≤ 1 nM | 25.1 to 2510 nM | 
CC1(S(=O)(=O)c2c(Cl)ccc(NC(=O)N[C@@H]3CCC=C3Cl)c2O)CCOCC1 [Compound 40, (R)-1-(4-chloro-2-hydroxy-3-((4-methyltetrahydro-2H-pyran-4-yl)sulfonyl)phenyl)-3-(2-chlorocyclopent-2-en-1-yl)urea] | ≤ 10 nM | 25.1 to 2510 nM | 
[2H]C([2H])([2H])C1(S(=O)(=O)c2c(Cl)ccc(NC(=O)N[C@@H]3CCC=C3Cl)c2O)CCOCC1 [Compound 41] | ≤ 1 nM | 25.1 to 2510 nM | 
CC1=CCC[C@H]1NC(=O)Nc1ccc(Cl)c(S(=O)(=O)[C@H]2C[C@H](N3CC[C@@H](F)C3)C2)c1O [Compound 49, trans-1-(4-chloro-3-((3-((R)-3-fluoropyrrolidin-1-yl)cyclobutyl)sulfonyl)-2-hydroxyphenyl)-3-((R)-2-methylcyclopent-2-en-1-yl)urea, trifluoroacetic acid salt] | ≤ 1 nM | 25.1 to 2510 nM | 
CC1=CCC[C@H]1NC(=O)Nc1ccc(Cl)c(S(=O)(=O)C(C)(C)[C@H]2CCOC2)c1O [Compound 56, 1-(4-chloro-2-hydroxy-3-((2-((S)-tetrahydrofuran-3-yl)propan-2-yl)sulfonyl)phenyl)-3-((R)-2-methylcyclopent-2-en-1-yl)urea] | ≤ 10 nM | 25.1 to 2510 nM | 
CC1=CCC[C@H]1NC(=O)Nc1ccc(Cl)c(S(=O)(=O)C(C)(C)C)c1O [Compound 57] | ≤ 1 nM | 25.1 to 2510 nM | 
CC1=CCC[C@H]1NC(=O)Nc1ccc(Cl)c(S(=O)(=O)C(C)(C)C2CCOC2)c1O (stereo partly drawn) [Compound 59, 1-(4-chloro-2-hydroxy-3-((2-(tetrahydrofuran-3-yl)propan-2-yl)sulfonyl)phenyl)-3-((R)-2-methylcyclopent-2-en-1-yl)urea] | ≤ 1 nM | 25.1 to 2510 nM | 
CC1=CCC[C@H]1NC(=O)Nc1ccc(Cl)c(S(=O)(=O)C(C)(C)C2CCOCC2)c1O [Compound 60, (R)-1-(4-chloro-2-hydroxy-3-((2-(tetrahydro-2H-pyran-4-yl)propan-2-yl)sulfonyl)phenyl)-3-(2-methylcyclopent-2-en-1-yl)urea] | ≤ 1 nM | 25.1 to 2510 nM | 
CC1=CCC[C@H]1NC(=O)Nc1ccc(Cl)c(S(=O)(=O)C(C)(C)CF)c1O [Compound 62, (R)-1-(4-chloro-3-((1-fluoro-2-methylpropan-2-yl)sulfonyl)-2-hydroxyphenyl)-3-(2-methylcyclopent-2-en-1-yl)urea] | ≤ 1 nM | 25.1 to 2510 nM | 
CC1=CCC[C@H]1NC(=O)Nc1ccc(Cl)c(S(=O)(=O)C2(C)CCCOC2)c1O (stereo partly drawn) [Compound 66, 1-(4-chloro-2-hydroxy-3-((3-methyltetrahydro-2H-pyran-3-yl)sulfonyl)phenyl)-3-((R)-2-methylcyclopent-2-en-1-yl)urea] | ≤ 10 nM | 25.1 to 2510 nM | 
CC1=CCC[C@H]1NC(=O)Nc1ccc(Cl)c(S(=O)(=O)C2(C)CCOC2)c1O (stereo partly drawn) [Compound 68, 1-(4-chloro-2-hydroxy-3-((3-methyltetrahydro-furan-3-yl)sulfonyl)phenyl)-3-((R)-2-methylcyclopent-2-en-1-yl)urea] | ≤ 10 nM |  | 25.1 to 2510 nM
CC1=CCC[C@H]1NC(=O)Nc1ccc(Cl)c(S(=O)(=O)C2(C)CCOCC2)c1O [Compound 69, (R)-1-(4-chloro-2-hydroxy-3-((4-methyltetrahydro-2H-pyran-4-yl)sulfonyl)phenyl)-3-(2-methylcyclopent-2-en-1-yl)urea] | ≤ 1 nM | 25.1 to 2510 nM | 
[2H]C([2H])([2H])C1(S(=O)(=O)c2c(Cl)ccc(NC(=O)N[C@@H]3CCC=C3C)c2O)CCOCC1 [Compound 70] | ≤ 1 nM | 25.1 to 2510 nM | 
CC1=CCC[C@H]1NC(=O)Nc1ccc(Cl)c(S(=O)(=O)C2(CF)CCOCC2)c1O [Compound 72, (R)-1-(4-chloro-3-((4-(fluoromethyl)tetra-hydro-2H-pyran-4-yl)sulfonyl)-2-hydroxyphenyl)-3-(2-methylcyclopent-2-en-1-yl)urea] | ≤ 10 nM | 25.1 to 2510 nM | 
CC1=CCC[C@H]1NC(=O)Nc1ccc(Cl)c(S(=O)(=O)C2(F)CCOCC2)c1O [Compound 75, (R)-1-(4-chloro-3-((4-fluorotetrahydro-2H-pyran-4-yl)sulfonyl)-2-hydroxyphenyl)-3-(2-methylcyclopent-2-en-1-yl)urea] | ≤ 1 nM | 25.1 to 2510 nM | 
CC1=CCC[C@H]1NC(=O)Nc1ccc(Cl)c(S(=O)(=O)C2CC(F)(F)C2)c1O [Compound 76, (R)-1-(4-chloro-3-((3,3-difluorocyclobutyl)sulfonyl)-2-hydroxyphenyl)-3-(2-methylcyclopent-2-en-1-yl)urea trifluoroacetic acid salt] | ≤ 1 nM | 25.1 to 2510 nM | 
CC1=CCC[C@H]1NC(=O)Nc1ccc(Cl)c(S(=O)(=O)C2CCCOC2)c1O (stereo partly drawn) [Compound 78, 1-(4-chloro-2-hydroxy-3-((tetrahydro-2H-pyran-3-yl)sulfonyl)phenyl)-3-((R)-2-methylcyclopent-2-en-1-yl)urea] | ≤ 10 nM | 25.1 to 2510 nM | 
CC1=CCC[C@H]1NC(=O)Nc1ccc(Cl)c(S(=O)(=O)C2CCN(C3CCC3)CC2)c1O [Compound 82, (R)-1-(4-chloro-3-((1-cyclobutylpiperidin-4-yl)sulfonyl)-2-hydroxyphenyl)-3-(2-methylcyclopent-2-en-1-yl)urea trifluoroacetic acid salt] | ≤ 1 nM | 25.1 to 2510 nM | 
CC1=CCC[C@H]1NC(=O)Nc1ccc(Cl)c(S(=O)(=O)n2ccc3cccnc32)c1O [Compound 90, (R)-1-(3-((1H-pyrrolo[2,3-b]pyridin-1-yl)sulfonyl)-4-chloro-2-hydroxyphenyl)-3-(2-methylcyclopent-2-en-1-yl)urea] | ≤ 1 nM | 25.1 to 2510 nM | 
CC1=CCC[C@H]1NC(=O)Nc1ccc(Cl)c(S(=O)(=O)N2CCN3CCC[C@@]3(C)C2)c1O [Compound 93, 1-(4-chloro-2-hydroxy-3-(((S)-8a-methylhexahydro-pyrrolo[1,2-a]pyrazin-2(1H)-yl)sulfonyl)phenyl)-3-((R)-2-methylcyclopent-2-en-1-yl)urea, trifluoroacetic acid salt] | ≤ 10 nM | 25.1 to 2510 nM | 
CC(C)(C)S(=O)(=O)c1c(C#N)ccc(NC(=O)N[C@@H]2CCC=C2Cl)c1O [Compound 94, (R)-1-(3-(tert-butylsulfonyl)-4-cyano-2-hydroxyphenyl)-3-(2-chlorocyclopent-2-en-1-yl)urea] | ≤ 1 nM | 25.1 to 2510 nM | 
CC1=CCCC1NC(=O)Nc1ccc(Cl)c(S(=O)(=O)C(C)(C)CF)c1O (stereo not shown) [Compound 104, 1-(4-chloro-3-((1-fluoro-2-methylpropan-2-yl)sulfonyl)-2-hydroxyphenyl)-3-(2-methylcyclopent-2-en-1-yl)urea] | ≤ 10 nM | 25.1 to 2510 nM | 
